Source: patent US20180311199A1, “COMBINATION TREATMENT FOR INFLAMMATORY DISEASES” (priority 2016, published 2018)

How the values were obtained:
[1] = system: pro-inflammatory genes regulated by M5; assay: Inflammatory Response and Autoimmune PCR Array on RNA of M5-treated primary human keratinocytes; format: cell-based; conditions: diacerein 10 μM, infliximab 5 μg/ml; for number of genes in which the greatest effect was seen: of 48 genes partially or fully reversed by all three groups, keratinocytes + M5, 24 hours; for number of genes on which the effect of the five cytokines was partially or fully reversed: of 81 pro-inflammatory genes significantly (p<0.05) regulated at least 2-fold by M5, keratinocytes, 24 hours
Experimental: (§1) Experiments were carried out to investigate the effect of combined anti-TNF-α (infliximab) and diacerein, an inhibitor for a pro-inflammatory cytokine interleukin-1, utilizing an in vivo-equivalent psoriasis cell culture system. This in vivo-equivalent model is generated by using a group of 5 different natural chemicals (M5: IL-17A, IL-22, Oncostatin-M, IL-1α, and TNF-α) on human epidermal cells keratinocytes, recapitulating the in vivo immune dysregulation as identified in vivo in the skin lesions of patients affected by psoriasis (Guilloteau et al., Skin Inflammation Induced by the Synergistic Action of IL-17A, IL-22, Oncostatin M, IL-1α, and TNF-α Recapitulates Some Features of Psoriasis. Journal of Immunology 2010; 184:5263-70). Thus, this in vivo-equivalent model provides an excellent tool for the investigation of the combined effect of anti-TNF-α and diacerein on psoriasis.
The experiments were carried out in the following manner: Primary human keratinocytes (purchased from Invitrogen, Carlsbad, Calif.) Epilife culture medium supplemented with human keratinocyte growth supplement (Invitrogen) in standard humidified chamber (37° C., 5% CO2). When the cells reached 80% confluency, cells were divided into 5 groups for treatment: • 1). Cell culture medium alone, serving as a negative control • 2). Cell culture medium plus 5 natural chemicals (M5) • 3). Cell culture medium plus 5 natural chemicals (M5) and anti-TNF-alpha (infliximab) • 4). Cell culture medium plus 5 natural chemicals (M5) and diacerein • 5). Cell culture medium plus 5 natural chemicals (M5), anti-TNF-alpha (infliximab) and diacerein.
The above 5 groups were incubated at 37° C. for 24 hours.
The concentrations and commercial sources of the experiment components are: • IL-17 alpha (10 ng/ml, Life Technologies, Frederick, Md.) • IL-22 (10 ng/ml. Life Technologies, Frederick, Md.) • Oncostatin-M (10 ng/ml, Life Technologies, Frederick, Md.) • IL-1 alpha (10 ng/ml, Life Technologies, Frederick, Md.) • TNF-alpha ([…], Life Technologies, Frederick, Md.) • Diacerein (10 μM, Sigma Aldrich, Saint Louis, Md.) • Infliximab (Remicade®, an anti-TNF-alpha, 5 μg/ml, Jansen Biotech, Horsham, Pa.)
After 24 hours of incubation, the cultured cells were washed three times with sterile PBS (phosphate-buffered saline) and the RNAs were harvested with Trizol (Invitrogen) and the purity (A260/A280 ratio>1.8) was confirmed. Reverse transcription was performed with 1 micro gram RNA using first strand kit from Invitrogen according to manufacturer's instruction. 10 μl of mastermix (Qiagen, Valencia, Calif.) with the reversely transcribed cDNA were amplified using a real-time PCR machine (ViiA7 PCR, Applied Biosystems, Waltham, Pa.). Statistical analysis was performed with web-based Software. […]

[2] = system: IL-6, IL-19, G-CSF, S100AB, and NAP-2; assay: ELISA of cytokine proteins in culture supernatant of M5-treated primary human keratinocytes (psoriasis cell culture model); format: cell-based; conditions: of five gene products (IL-6, IL-19, G-CSF, S100AB, NAP-2), primary human keratinocytes + M5, 24 hours, diacerein 10 μM, infliximab 5 μg/ml
Experimental: as §1, with “Thus, this in vivo-equivalent model provides an excellent tool for the investigation of the combined effect of anti-TNF-α and diacerein on psoriasis.” left out
After 24 hours of incubation, the culture media (supernatant) of the above 5 groups were collected and stored at −20° C. for ELISA experiments as the following: 50-100 μl of cell culture supernatant were assayed with commercially available ELISA kits for human cytokines according to the manufacturers' instructions (IL-6, IL-19, G-CSF, S100AB, and NAP-2). The data we collected determined that infliximab alone (group 3), diacerein alone (group 4), and combined infliximab and diacerein (group 5) partially or completely reverse the dysregulation effect of the 5 natural chemicals (M5) in five, three, and five genes, respectively. […]

With infliximab the “number of genes in which the greatest effect was seen” value [1] was 10 genes, the “number of genes on which the effect of the five cytokines was partially or fully reversed” value [1] was 67 genes and the “number of genes in which the dysregulation effect of the 5 natural chemicals (M5) is partially or completely reversed” value [2] was “five”.

With CC(=O)Oc1cccc2c1C(=O)c1c(OC(C)=O)cc(C(=O)O)cc1C2=O [diacerein] the “number of genes in which the greatest effect was seen” value [1] was 17 genes, the “number of genes on which the effect of the five cytokines was partially or fully reversed” value [1] was 61 genes and the “number of genes in which the dysregulation effect of the 5 natural chemicals (M5) is partially or completely reversed” value [2] was “three”.
